Experimental data taken from ChEMBL document CHEMBL1149775, “Synthesis, characterization and biological activity of Schiff base analogues of indole-3-carboxaldehyde” (2008).
≈ marks a conversion by molar mass, not a printed value.

Experiments:
Type in all cases: functional
Aspergillus niger = assay: Antifungal activity against Aspergillus niger after 48 hrs by serial plate dilution method
Pseudomonas fluorescens = assay: Antibacterial activity against Pseudomonas fluorescens after 24 hrs by broth dilution technique
Bacillus subtilis = assay: Antibacterial activity against Bacillus subtilis after 24 hrs by broth dilution technique
Candida albicans = assay: Antifungal activity against Candida albicans after 48 hrs by serial plate dilution method
Trichophyton rubrum = assay: Antifungal activity against Trichophyton rubrum after 48 hrs by serial plate dilution method
Staphylococcus aureus = assay: Antibacterial activity against Staphylococcus aureus after 24 hrs by broth dilution technique

Row | Structure (SMILES) | MIC (Aspergillus niger) [µg/mL] | MIC (Pseudomonas fluorescens) [µg/mL] | MIC (Bacillus subtilis) [µg/mL] | MIC (Candida albicans) [µg/mL] | MIC (Trichophyton rubrum) [µg/mL] | MIC (Staphylococcus aureus) [µg/mL]
1 | Oc1ccccc1/N=C/c1c[nH]c2ccccc12 | > 50 | 15.8 (≈ 66.9 µM) | 18.4 (≈ 77.9 µM) | 28.4 (≈ 120 µM) | > 50 | 35.9 (≈ 152 µM)
2 | O=S(=O)(O)c1cc(O)c(/N=C/c2c[nH]c3ccccc23)c2ccccc12 | 21.3 (≈ 58.1 µM) | 21.6 (≈ 59 µM) | 15.5 (≈ 42.3 µM) | 15.2 (≈ 41.5 µM) | 21.9 (≈ 59.8 µM) | > 50
3 | CC(C)C(/N=C/c1c[nH]c2ccccc12)C(=O)O (configuration not stated) | > 50 | 38.1 (≈ 156 µM) | 42.5 (≈ 174 µM) | 26.8 (≈ 110 µM) | > 50 | 16.8 (≈ 68.8 µM)
4 | O=C(O)CC(/N=C/c1c[nH]c2ccccc12)C(=O)O (configuration not stated) | 17.8 (≈ 68.4 µM) | 19.3 (≈ 74.2 µM) | 11.3 (≈ 43.4 µM) | 11.9 (≈ 45.7 µM) | 16.2 (≈ 62.2 µM) | 18.5 (≈ 71.1 µM)
5 | O=C(O)C(Cc1c[nH]cn1)/N=C/c1c[nH]c2ccccc12 (configuration not stated) | 47.5 (≈ 168 µM) | 3.8 (≈ 13.5 µM) | 35.1 (≈ 124 µM) | > 50 | > 50 | 3.4 (≈ 12 µM)
6 | O=C(O)CCC(/N=C/c1c[nH]c2ccccc12)C(=O)O (configuration not stated) | > 50 | 5.7 (≈ 20.8 µM) | 48.2 (≈ 176 µM) | 12.5 (≈ 45.6 µM) | > 50 | 19.2 (≈ 70 µM)
7 | CC(C)CC(/N=C/c1c[nH]c2ccccc12)C(=O)O (configuration not stated) | > 50 | > 50 | 12.1 (≈ 46.8 µM) | 19.9 (≈ 77 µM) | > 50 | 35.3 (≈ 137 µM)
